In ChEMBL document CHEMBL1201862, “PubChem BioAssay data set” (2004):
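Grown in 96-well plates, cells were treated for 48 hours with each compound at five concentrations. Insufficient inhibition: endpoint recorded as highest concentration tested. Abbreviation: GI50, concentration required for 50% inhibition of growth.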 Active and inactive are the calls of the source. No stated cut-off is given here; in the data, active = GI50 up to about 1.1 µM and inactive = higher.

Experiments:
Assay in all cases: inhibition of tumour cell growth, NCI panel, 48 h
OVCAR-4 = system: OVCAR-4
HL-60 = system: HL-60
U-251 = system: U-251
M14 = system: M14
OVCAR-5 = system: OVCAR-5
SR = system: SR
ACHN = system: ACHN
SNB-75 = system: SNB-75
SF-539 = system: SF-539
KM12 = system: KM12
SK-OV-3 = system: SK-OV-3
K562 = system: K562
SK-MEL-5 = system: SK-MEL-5
A549 = system: A549
CCRF-CEM = system: CCRF-CEM
LOX IMVI = system: LOX IMVI
RPMI-8226 = system: RPMI-8226

With `O=P(Nc1cccc(Cl)c1)(Oc1ccccc1)N(CCCl)CCCl` (stereo unspecified) the GI50 (OVCAR-4) was 11.7 µM (inactive), the GI50 (HL-60) was 70.6 µM (inactive) and the GI50 (U-251) was 14.6 µM (inactive). The GI50 (M14) was 15.2 µM (inactive), the GI50 (OVCAR-5) was 14.5 µM (inactive) and the GI50 (SR) was 31.6 µM (inactive). For the same compound, the GI50 (ACHN) was 16.7 µM (inactive), the GI50 (SNB-75) was 15.6 µM (inactive) and the GI50 (SF-539) was 16.7 µM (inactive). The GI50 (KM12) was 14.8 µM (inactive), the GI50 (SK-OV-3) was > 100 µM (inactive) and the GI50 (K562) was 99.3 µM (inactive). For the same compound, the GI50 (SK-MEL-5) was 12.4 µM (inactive), the GI50 (A549) was 13.2 µM (inactive) and the GI50 (CCRF-CEM) was > 100 µM (inactive).
For `O=C(Nc1ccccc1)C(=O)C(C(=O)c1ccccc1F)C1OC(=O)c2ccccc21` (stereo unspecified), the GI50 (OVCAR-4) was 31.6 µM (inactive), the GI50 (LOX IMVI) was 27.2 µM (inactive) and the GI50 (HL-60) was 24.4 µM (inactive). For the same compound, the GI50 (U-251) was 22.9 µM (inactive), the GI50 (M14) was 44 µM (inactive) and the GI50 (OVCAR-5) was 81.5 µM (inactive). For the same compound, the GI50 (RPMI-8226) was 35.1 µM (inactive), the GI50 (SR) was 21.5 µM (inactive) and the GI50 (ACHN) was 49.9 µM (inactive). The GI50 (SNB-75) was 21.1 µM (inactive), the GI50 (SF-539) was 19.3 µM (inactive) and the GI50 (KM12) was 26.9 µM (inactive). For the same compound, the GI50 (SK-OV-3) was 49 µM (inactive), the GI50 (K562) was 44.7 µM (inactive) and the GI50 (SK-MEL-5) was 71.8 µM (inactive). For the same compound, the GI50 (A549) was 37.8 µM (inactive) and the GI50 (CCRF-CEM) was 29.5 µM (inactive).
`Cc1cc(N(CCC#N)CCC#N)ccc1/N=N/c1cccc(C(=O)O)c1` was tested, and the GI50 (OVCAR-4) was > 100 µM (inactive), the GI50 (LOX IMVI) was > 100 µM (inactive) and the GI50 (HL-60) was > 100 µM (inactive). The GI50 (U-251) was > 100 µM (inactive), the GI50 (M14) was > 100 µM (inactive) and the GI50 (OVCAR-5) was > 100 µM (inactive). For the same compound, the GI50 (ACHN) was > 100 µM (inactive), the GI50 (SNB-75) was 34.1 µM (inactive) and the GI50 (SF-539) was > 100 µM (inactive). For the same compound, the GI50 (KM12) was > 100 µM (inactive), the GI50 (SK-OV-3) was > 100 µM (inactive) and the GI50 (K562) was > 100 µM (inactive). The GI50 (SK-MEL-5) was > 100 µM (inactive), the GI50 (A549) was > 100 µM (inactive) and the GI50 (CCRF-CEM) was > 100 µM (inactive).
`CC(C)CCCCCCCCCCCCC(=O)NCC(=O)NC1C(C)OC(Nc2ncnc3c2ncn3C)C(O)C1O` (stereo unspecified) was tested, and the GI50 (OVCAR-4) was 6.41 µM (inactive), the GI50 (LOX IMVI) was 5.3 µM (inactive) and the GI50 (HL-60) was 0.485 µM (active). For the same compound, the GI50 (U-251) was 1.21 µM (inactive), the GI50 (OVCAR-5) was 7.33 µM (inactive) and the GI50 (RPMI-8226) was 2.43 µM (inactive). The GI50 (SNB-75) was 2.33 µM (inactive), the GI50 (SF-539) was 2.82 µM (inactive) and the GI50 (KM12) was 5.47 µM (inactive). The GI50 (SK-OV-3) was 3.1 µM (inactive), the GI50 (K562) was > 73.3 µM (inactive) and the GI50 (SK-MEL-5) was > 74.3 µM (inactive). The GI50 (A549) was 8.28 µM (inactive) and the GI50 (CCRF-CEM) was > 100 µM (inactive).
`CC(C)=CC(=O)OC1C2C(C)C(=O)OC2C(O)C(C)C2C=CC(=O)C21C` (stereo unspecified) was tested, and the GI50 (OVCAR-4) was 3.13 µM (inactive), the GI50 (LOX IMVI) was 0.918 µM (active) and the GI50 (HL-60) was 0.826 µM (active). The GI50 (U-251) was 4.06 µM (inactive), the GI50 (OVCAR-5) was 7.83 µM (inactive) and the GI50 (RPMI-8226) was 1.48 µM (inactive). For the same compound, the GI50 (SNB-75) was 2.72 µM (inactive), the GI50 (SF-539) was 3.61 µM (inactive) and the GI50 (KM12) was 4.03 µM (inactive). The GI50 (SK-OV-3) was 7.23 µM (inactive), the GI50 (K562) was 2.14 µM (inactive) and the GI50 (SK-MEL-5) was 3.32 µM (inactive). The GI50 (A549) was 8.65 µM (inactive) and the GI50 (CCRF-CEM) was 0.802 µM (active).
In the case of `CS/C(=N\c1ccccc1)N(c1ccccc1)c1nc(=[N+](C)C)ss1.[O-][Cl+3]([O-])([O-])[O-]`, the GI50 (OVCAR-4) is reported as 9.46 µM (inactive), the GI50 (LOX IMVI) is reported as 3.15 µM (inactive) and the GI50 (HL-60) is reported as 0.927 µM (active). For the same compound, the GI50 (U-251) was 2.34 µM (inactive), the GI50 (M14) was 1.13 µM (inactive) and the GI50 (OVCAR-5) was 15.3 µM (inactive). For the same compound, the GI50 (RPMI-8226) was 0.22 µM (active), the GI50 (SR) was 2.16 µM (inactive) and the GI50 (ACHN) was 5.42 µM (inactive). For the same compound, the GI50 (SNB-75) was 4.71 µM (inactive), the GI50 (SF-539) was 4.15 µM (inactive) and the GI50 (KM12) was 2.65 µM (inactive). For the same compound, the GI50 (SK-OV-3) was 23.9 µM (inactive), the GI50 (K562) was 0.27 µM (active) and the GI50 (SK-MEL-5) was 1.41 µM (inactive). For the same compound, the GI50 (A549) was 14.5 µM (inactive) and the GI50 (CCRF-CEM) was 0.508 µM (active).
In the case of `O=C(c1ccc(O)cc1O)C1C(c2ccc(O)cc2)OC(c2ccc(O)cc2)C1C(=O)c1ccc(O)cc1O` (stereo unspecified), the GI50 (OVCAR-4) is reported as 28.4 µM (inactive), the GI50 (LOX IMVI) is reported as 19.5 µM (inactive) and the GI50 (HL-60) is reported as 17.8 µM (inactive). For the same compound, the GI50 (U-251) was 16.5 µM (inactive), the GI50 (M14) was 18 µM (inactive) and the GI50 (OVCAR-5) was 12.6 µM (inactive). For the same compound, the GI50 (ACHN) was 22.2 µM (inactive), the GI50 (SNB-75) was 16.6 µM (inactive) and the GI50 (SF-539) was 20 µM (inactive). The GI50 (KM12) was 21.9 µM (inactive), the GI50 (SK-MEL-5) was 16.1 µM (inactive) and the GI50 (A549) was > 100 µM (inactive).
For `Clc1ccc2c(Cl)nc(-c3ccccc3)nc2c1`, the GI50 (HL-60) was 20.2 µM (inactive), the GI50 (U-251) was 11.8 µM (inactive) and the GI50 (OVCAR-5) was 51.8 µM (inactive). The GI50 (RPMI-8226) was 10 µM (inactive), the GI50 (SR) was 25.2 µM (inactive) and the GI50 (ACHN) was 20.9 µM (inactive). The GI50 (SNB-75) was 17.7 µM (inactive), the GI50 (KM12) was 36.8 µM (inactive) and the GI50 (SK-OV-3) was 14.1 µM (inactive). The GI50 (K562) was 23.4 µM (inactive), the GI50 (SK-MEL-5) was 16.5 µM (inactive) and the GI50 (CCRF-CEM) was 22.9 µM (inactive).
`CCOC(=O)CC(=O)ON(C)C(=O)Cc1ccccc1` was tested, and the GI50 (OVCAR-4) was > 100 µM (inactive), the GI50 (LOX IMVI) was > 100 µM (inactive) and the GI50 (HL-60) was > 100 µM (inactive). For the same compound, the GI50 (U-251) was > 100 µM (inactive), the GI50 (M14) was > 100 µM (inactive) and the GI50 (OVCAR-5) was > 100 µM (inactive). For the same compound, the GI50 (RPMI-8226) was > 100 µM (inactive), the GI50 (SR) was > 100 µM (inactive) and the GI50 (ACHN) was > 100 µM (inactive). For the same compound, the GI50 (SF-539) was > 100 µM (inactive), the GI50 (KM12) was > 100 µM (inactive) and the GI50 (SK-OV-3) was > 100 µM (inactive). For the same compound, the GI50 (SK-MEL-5) was > 100 µM (inactive), the GI50 (A549) was > 100 µM (inactive) and the GI50 (CCRF-CEM) was > 100 µM (inactive).
